# Source: PMC11279566, “Novel Coumarin–Nucleobase Hybrids with Potential Anticancer Activity: Synthesis, In Vitro Cell-Based Evaluation, and Molecular Docking” (Pharmaceuticals, 2024)
# Read-outs that look alike come from different tables or passages of the source.
# What was measured:
# [1] = test system: human colon carcinoma cells (HCT116); assay: colorimetric MTT cytotoxicity assay, HCT116; assay type: cell-based; conditions: for IC50: Homo sapiens, HCT-116, MTT, n = 3, compounds as HP-β-CD inclusion complex; for Selectivity Index HCT116 24 h: IC50 of HaCat / IC50 of HCT116, 24 h; for Selectivity Index HCT116 48 h: IC50 of HaCat / IC50 of HCT116, 48 h
# Experimental: (§1) The potential antitumor activity of eight new hybrids was evaluated through colorimetric microculture MTT assay against three tumor cell lines: human colon carcinoma cells (HCT116), human laryngeal tumor cells (Hep-2), and human lung carcinoma cells (A549). The hybridized compounds were also assayed against the non-tumor cell line HaCat (human keratinocyte) in order to obtain an indication of their selective cytotoxicity. Also, the commercial anticancer drug doxorubicin was employed as a positive drug standard to compare the cytotoxicity activities. Each experiment was carried out in triplicate on three different days. The selectivity index (SI) was calculated as the ratio between the IC50 (concentration that reduces cell viability by 50%) of HaCat (non-tumor line) and the IC50 of the tumor lines.
# (§2) A total of 1 mL of an ethanolic solution containing compounds 7a,b, 8a,b, 9a,b, or 10a,b (0.004 mol L^−1) was vigorously stirred with 1 mL of an aqueous solution of HP-β-CD (0.004 mol L^−1). The resulting mixture was kept under stirring until a clear solution was obtained. The final solution was concentrated under a vacuum to remove the solvent, and the remaining water was removed by lyophilization to give a water-soluble compound of the HP-β-CD complex in a powder form. The stock solutions of the compounds were prepared by dissolving the complexed compounds in 200 µL of DMSO, followed by dissolving in 1800 µL of Dulbecco’s Modified Eagle Medium (DMEM). The stock solution and dilutions were prepared prior to the cytotoxicity assays.
# (§3) The human colon carcinoma (HCT116), human laryngeal tumor (Hep-2), and human lung carcinoma (A549) cell lines, and the non-tumor human keratinocyte cell line (HaCat) were purchased from Rio de Janeiro Cell Bank. The cells were maintained in DMEM supplemented with […]; Life Technologies, Carlsbad, CA, USA) and 1% penicillin–streptomycin in a humidified 5% CO2 atmosphere at 37 °C.
# (§4) Cytotoxicity was assayed through the colorimetric microculture MTT assay. Cell suspensions were plated in 96-well plates in triplicate at an initial density of 7 × 10^4 cells mL^−1 and incubated at 37 °C for 24 h. After the incubation, the cells were treated with various concentrations of the evaluated compounds (7a,b, 8a,b, 9a,b, or 10a,b) and incubated for 24 and 48 h. After the treatment, the medium was removed, and an MTT solution (0.4 mg mL^−1) was added to each well and further incubated for 2 h at 37 °C. Then, DMSO (100 µL) was added for the solubilization of the formazan crystals, and the absorbance intensities were measured in a microplate reader (SpectraMax M2e, Molecular Devices, Sunnyvale, CA, USA) at 570 nm. The percentage of viable cells was calculated in relation to the control to determine the cytotoxic concentration that reduces 50% of the cell viability (IC50).
# [2] = test system: human lung carcinoma cells (A549); assay: colorimetric MTT cytotoxicity assay, A549; assay type: cell-based; conditions: for IC50: Homo sapiens, MTT, n = 3, compounds as HP-β-CD inclusion complex
# Experimental: as §1, §2, §3, §4
# [3] = test system: human laryngeal tumor cells (Hep-2); assay: colorimetric MTT cytotoxicity assay, Hep-2; assay type: cell-based; conditions: for IC50: Homo sapiens, MTT, n = 3, compounds as HP-β-CD inclusion complex; for Selectivity Index Hep-2 24 h: IC50 of HaCat / IC50 of Hep-2, 24 h
# Experimental: as §1, §2, §3, §4
# [4] = test system: HaCat (human keratinocyte); assay: colorimetric MTT cytotoxicity assay, non-tumor HaCat; assay type: cell-based; conditions: for IC50: Homo sapiens, HaCat non-tumor line, MTT, n = 3, compounds as HP-β-CD inclusion complex
# Experimental: as §1, §2, §3, §4
# [5] = test system: human prostate cancer cell line (DU145); design: method as in PMID 23124212; conditions: read-out: IC50 against DU145 cell line; cited from earlier work
# [6] = test system: human acute T lymphoblastic leukemia cell lines (MOLT-3); design: method as in PMID 25078311; conditions: antiproliferative activity, read-out: IC50 against MOLT3 cell line; cited from earlier work
# [7] = HCT116, 24 h, read-out: IC50 (µM ± SD) HCT116 24 h
# [8] = HCT116, 48 h, read-out: IC50 (µM ± SD) HCT116 48 h
# [9] = A549, 24 h, read-out: IC50 (µM ± SD) A549 24 h
# [10] = A549, 48 h, read-out: IC50 (µM ± SD) A549 48 h
# [11] = Hep-2, 24 h, read-out: IC50 (µM ± SD) Hep-2 24 h
# [12] = Hep-2, 48 h, read-out: IC50 (µM ± SD) Hep-2 48 h
# [13] = 24 h, read-out: IC50 (µM ± SD) HaCat 24 h
# [14] = 48 h, read-out: IC50 (µM ± SD) HaCat 48 h
compound,measurement,setting,value
"Cn1cnc2c1c(=O)n(Cc1cn(Cc3cc(=O)oc4cc(O)cc(O)c34)nn1)c(=O)n2C [Compound 10a, 1-((1-((5,7-Dihydroxy-2-oxo-2H-chromen-4-yl)methyl)-1H-1,2,3-triazol-4-yl)methyl)-3,7-dimethyl-3,7-dihydro-1H-purine-2,6-dione]",IC50,[1]; [7],78.3 ± 1.89 µM
same,IC50,[1]; [8],> 100 µM
same,Selectivity Index HCT116 24 h,[1],4
same,IC50,[2]; [9],> 100 µM
same,IC50,[2]; [10],> 100 µM
same,IC50,[3]; [11],56.6 ± 1.75 µM
same,IC50,[3]; [12],> 100 µM
same,Selectivity Index Hep-2 24 h,[3],5
same,IC50,[4]; [13],307.8 ± 2.49 µM
same,IC50,[4]; [14],> 100 µM
same,melting point,,315 °C (dec.)
"O=c1cc(Cn2cc(Cn3ccc(=O)n(Cc4cn(Cc5cc(=O)oc6cc(O)cc(O)c56)nn4)c3=O)nn2)c2c(O)cc(O)cc2o1 [Compound 9a, 1,3-Bis((1-((5,7-dihydroxy-2-oxo-2H-chromen-4-yl)methyl)-1H-1,2,3-triazol-4-yl)methyl)pyrimidine-2,4(1H,3H)-dione]",activity compared to doxorubicin (fold),"[1]; HCT116 cell line, IC50 relative to doxorubicin",approximately 20 fold
same,IC50,[1]; [7],69.2 ± 1.85 µM
same,IC50,[1]; [8],24.2 ± 1.39 µM
same,Selectivity Index HCT116 48 h,[1],6
same,cytotoxicity effect against A549 cells (in words),[2]; 24 and 48 h treatments,No cytotoxicity effect was observed
same,IC50,[2]; [9],> 100 µM
same,IC50,[2]; [10],> 100 µM
same,IC50,[3]; [11],51.6 ± 1.71 µM
same,IC50,[3]; [12],> 100 µM
same,Selectivity Index Hep-2 24 h,[3],12
same,IC50,[4]; [13],634.9 ± 2.8 µM
same,IC50,[4]; [14],142 ± 2.15 µM
same,cytotoxicity against the non-tumor cells HaCat (in words),"[4]; highest evaluated concentration 100 μM, all exposure times",did not exhibit appreciable cytotoxicity
same,melting point,,302 °C (dec.)
"Cn1cnc2c1c(=O)n(Cc1cn(Cc3cc(=O)oc4c3ccc3ccccc34)nn1)c(=O)n2C [Compound 10b, 3,7-Dimethyl-1-((1-((2-oxo-2H-benzo[h]chromen-4-yl)methyl)-1H-1,2,3-triazol-4-yl)methyl)-3,7-dihydro-1H-purine-2,6-dione]",IC50,[1]; [7],41 ± 1.61 µM
same,IC50,[1]; [8],84.7 ± 1.92 µM
same,Selectivity Index HCT116 24 h,[1],6
same,IC50,[2]; [9],> 100 µM
same,IC50,[2]; [10],> 100 µM
same,IC50,[3]; [11],> 100 µM
same,IC50,[3]; [12],> 100 µM
same,IC50,[4]; [13],263.3 ± 2.42 µM
same,IC50,[4]; [14],120 ± 2.08 µM
same,melting point,,288 to 290 °C
O=C1C(=O)N(CCCn2cc(Cn3ccc(=O)n(Cc4cn(CCCN5C(=O)C(=O)c6ccc(Cl)cc65)nn4)c3=O)nn2)c2cc(Cl)ccc21 [B],IC50,[5],13.9 µM
COc1cccc(/C=C/C(=O)c2cccc(-n3cc(COc4cc(=O)oc5ccccc45)nn3)c2)c1OC [A],IC50,[6],0.53 µM
"O=c1ccn(Cc2cn(Cc3cc(=O)oc4c3ccc3ccccc34)nn2)c(=O)[nH]1 [Compound 8a, 1-((1-((2-Oxo-2H-benzo[h]chromen-4-yl)methyl)-1H-1,2,3-triazol-4-yl)methyl) Pyrimidine-2,4(1H,3H)-dione]",IC50,[1]; [7],> 100 µM
same,IC50,[1]; [8],> 100 µM
same,IC50,[2]; [9],> 100 µM
same,IC50,[2]; [10],> 100 µM
same,IC50,[3]; [11],> 100 µM
same,IC50,[3]; [12],> 100 µM
same,IC50,[4]; [13],> 100 µM
same,IC50,[4]; [14],> 100 µM
same,melting point,,235 °C (dec.)
"COc1cccc2c1C(=O)c1c(O)c3c(c(O)c1C2=O)C[C@@](O)(C(=O)CO)C[C@@H]3O[C@H]1C[C@H](N)[C@H](O)[C@H](C)O1 [Doxorubicin, doxorubicin, reference compound]",IC50,[1]; [8],1.23 ± 0.05 µM
same,IC50,[3]; [12],1.69 ± 0.15 µM
same,IC50,[4]; [14],39.3 ± 1.59 µM
"Cc1cn(Cc2cn(Cc3cc(=O)oc4cc(O)cc(O)c34)nn2)c(=O)[nH]c1=O [Compound 7b, 1-((1-((5,7-Dihydroxy-2-oxo-2H-chromen-4-yl)methyl)-1H-1,2,3-triazol-4-yl)methyl)-5-methylpyrimidine-2,4(1H,3H)-dione]",IC50,[1]; [7],> 100 µM
same,IC50,[1]; [8],> 100 µM
same,IC50,[2]; [9],> 100 µM
same,IC50,[2]; [10],> 100 µM
same,IC50,[3]; [11],> 100 µM
same,IC50,[3]; [12],> 100 µM
same,IC50,[4]; [13],> 100 µM
same,IC50,[4]; [14],> 100 µM
same,melting point,,285 °C (dec.)
"Cc1cn(Cc2cn(Cc3cc(=O)oc4c3ccc3ccccc34)nn2)c(=O)[nH]c1=O [Compound 8b, 1-((1-((2-Oxo-2H-benzo[h]chromen-4-yl)methyl)-1H-1,2,3-triazol-4-yl)methyl)-5-methylpyrimidine-2,4(1H,3H)-dione]",IC50,[1]; [7],87.6 ± 1.94 µM
same,IC50,[1]; [8],> 100 µM
same,Selectivity Index HCT116 24 h,[1],5
same,IC50,[2]; [9],> 100 µM
same,IC50,[2]; [10],> 100 µM
same,IC50,[3]; [11],> 100 µM
same,IC50,[3]; [12],> 100 µM
same,IC50,[4]; [13],454.1 ± 2.67 µM
same,IC50,[4]; [14],> 100 µM
same,melting point,,270 to 272 °C
"O=c1ccn(Cc2cn(Cc3cc(=O)oc4cc(O)cc(O)c34)nn2)c(=O)[nH]1 [Compound 7a, 1-((1-((5,7-Dihydroxy-2-oxo-2H-chromen-4-yl)methyl)-1H-1,2,3-triazol-4-yl)methyl) Pyrimidine-2,4(1H,3H)-dione]",IC50,[1]; [7],> 100 µM
same,IC50,[1]; [8],> 100 µM
same,IC50,[2]; [9],> 100 µM
same,IC50,[2]; [10],> 100 µM
same,IC50,[3]; [11],> 100 µM
same,IC50,[3]; [12],> 100 µM
same,IC50,[4]; [13],> 100 µM
same,IC50,[4]; [14],> 100 µM
same,melting point,,230 °C (dec.)
"O=c1cc(Cn2cc(Cn3ccc(=O)n(Cc4cn(Cc5cc(=O)oc6c5ccc5ccccc56)nn4)c3=O)nn2)c2ccc3ccccc3c2o1 [Compound 9b, 1,3-Bis((1-((2-oxo-2H-benzo[h]chromen-4-yl)methyl)-1H-1,2,3-triazol-4-yl)methyl)pyrimidine-2,4(1H,3H)-dione]",IC50,[1]; [7],54.5 ± 1.74 µM
same,IC50,[1]; [8],59.2 ± 1.77 µM
same,Selectivity Index HCT116 24 h,[1],19
same,Selectivity Index HCT116 48 h,[1],55
same,IC50,[2]; [9],> 100 µM
same,IC50,[2]; [10],51 ± 1.71 µM
same,Selectivity Index A549 48 h,"[2]; IC50 of HaCat / IC50 of A549, 48 h",63
same,cytotoxicity for Hep-2 cells (in words),[3],No appreciative cytotoxicity was observed
same,IC50,[3]; [11],> 100 µM
same,IC50,[3]; [12],> 100 µM
same,IC50,[4]; [13],1049 ± 3.02 µM
same,IC50,[4]; [14],3228 ± 3.5 µM
same,melting point,,193 to 195 °C
